Holding throughout (type): biochemical
In assay [1] the target is T1, Plasmodium vivax guanylate kinase (PvGK) (Plasmodium vivax, UniProt A5K709).
T1 construct: gene PVX_099895; full-length PvGK with an N-terminal hexa-histidine tag
Kind of assay: HPLC detection of product formed by purified enzyme.

In assay [2] the target is T1, Plasmodium vivax guanylate kinase (PvGK). Nature of the assay: HPLC guanylate kinase inhibition assay, percent inhibition at […]. The settings on record: read-out: % inhibition at 5 mM.
For assay [3] the target is unchanged. Kind of assay: HPLC guanylate kinase assay, GMP saturation curve (substrate inhibition).
The target is the same in assay [4]. Nature of the assay: HPLC guanylate kinase assay, ATP saturation curve (sigmoidal, h = […]; apparent Kprime).
Assay [5] shares this target. Kind of assay: HPLC guanylate kinase inhibition assay, IC50 curve.

T1 sequence (A5K709 entry or part of it): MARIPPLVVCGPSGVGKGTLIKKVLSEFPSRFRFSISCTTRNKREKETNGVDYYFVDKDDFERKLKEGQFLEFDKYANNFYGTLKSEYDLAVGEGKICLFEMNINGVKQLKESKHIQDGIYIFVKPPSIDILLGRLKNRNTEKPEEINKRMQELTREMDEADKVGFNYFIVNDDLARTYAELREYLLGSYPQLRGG

Take `Nc1nc2c(ncn2[C@@H]2O[C@H](COP(=O)(O)OP(=O)(O)O)[C@@H](O)[C@H]2O)c(=O)[nH]1` [GDP]: the “HPLC detection of product formed by purified enzyme” value in assay [1] is “used to study the kinetics of the forward reaction (forming ADP and GDP) catalyzed by PvGK”. Usually inhibition stands for how much of the control response was suppressed. As for `O=c1ccc2ccc(O)c(O)c2o1` [compound 1, 7,8-dihydroxycoumarin], the inhibition at 5000 µM in assay [2] came out at 68%. With `Nc1nc(=O)c2ncn([C@@H]3O[C@H](COP(=O)(O)O)[C@@H](O)[C@H]3O)c2[nH]1` [GMP], the “HPLC guanylate kinase assay, GMP saturation curve (substrate inhibition)” value in assay [3] was “showed a decrease in initial velocity with increasing GMP concentrations, indicating strong substrate inhibition”. A word on the Km: it is the concentration of substrate that gives half-maximal velocity. With `Nc1ncnc2c1ncn2[C@@H]1O[C@H](COP(=O)(O)OP(=O)(O)OP(=O)(O)O)[C@@H](O)[C@H]1O` [ATP], the Km in assay [4] came to 15.6 ± 2.07 µM.

The term IC50 denotes the point on the concentration scale where inhibition reaches its midpoint. As to `O=C(O)C1CSC2(C(=O)O)CCC(=O)N12` (centres unmarked) [compound 2, Compound 2], half-maximal inhibition in assay [5] (IC50) was put at 2700 µM.
